From ChEMBL document CHEMBL1201862, “PubChem BioAssay data set” (2004)
Active and inactive are the calls of the source.

Assays:
Large T antigen = Large T antigen (Simian virus 40, UniProt P03070); type: functional, Betapolyomavirus macacae;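 further: Confirmatory-stage PubChem screen for compounds that inhibit SV40 T antigen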
[1] = target: T1, Intestinal-type alkaline phosphatase (Homo sapiens, UniProt P09923); test: activation of human intestinal alkaline phosphatase – biochemical, dose response (AID 488873); type: functional
T1 sequence (P09923 whole entry): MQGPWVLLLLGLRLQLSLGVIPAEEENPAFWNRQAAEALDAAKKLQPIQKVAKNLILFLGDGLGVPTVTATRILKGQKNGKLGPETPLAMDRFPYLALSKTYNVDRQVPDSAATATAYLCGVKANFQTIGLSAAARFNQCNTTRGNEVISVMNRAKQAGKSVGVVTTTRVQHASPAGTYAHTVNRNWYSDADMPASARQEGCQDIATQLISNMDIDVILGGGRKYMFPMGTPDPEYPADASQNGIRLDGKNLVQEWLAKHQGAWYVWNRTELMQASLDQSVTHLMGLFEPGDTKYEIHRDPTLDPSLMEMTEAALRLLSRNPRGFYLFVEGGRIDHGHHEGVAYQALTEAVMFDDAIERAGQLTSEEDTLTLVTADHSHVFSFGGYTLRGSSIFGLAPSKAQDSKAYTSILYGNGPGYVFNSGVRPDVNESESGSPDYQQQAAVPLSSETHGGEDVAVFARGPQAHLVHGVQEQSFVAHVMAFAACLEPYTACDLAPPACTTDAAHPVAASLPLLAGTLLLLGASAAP

[2] = target: T2, Alkaline phosphatase, tissue-nonspecific isozyme (Homo sapiens, UniProt P05186); test: TNAP enzyme inhibition by screening hits, dose response, selectivity assay for mouse IAP inhibitor project, biochemical, human TNAP, uHTS hits (AID 488906); type: functional
T2 sequence (P05186 whole entry): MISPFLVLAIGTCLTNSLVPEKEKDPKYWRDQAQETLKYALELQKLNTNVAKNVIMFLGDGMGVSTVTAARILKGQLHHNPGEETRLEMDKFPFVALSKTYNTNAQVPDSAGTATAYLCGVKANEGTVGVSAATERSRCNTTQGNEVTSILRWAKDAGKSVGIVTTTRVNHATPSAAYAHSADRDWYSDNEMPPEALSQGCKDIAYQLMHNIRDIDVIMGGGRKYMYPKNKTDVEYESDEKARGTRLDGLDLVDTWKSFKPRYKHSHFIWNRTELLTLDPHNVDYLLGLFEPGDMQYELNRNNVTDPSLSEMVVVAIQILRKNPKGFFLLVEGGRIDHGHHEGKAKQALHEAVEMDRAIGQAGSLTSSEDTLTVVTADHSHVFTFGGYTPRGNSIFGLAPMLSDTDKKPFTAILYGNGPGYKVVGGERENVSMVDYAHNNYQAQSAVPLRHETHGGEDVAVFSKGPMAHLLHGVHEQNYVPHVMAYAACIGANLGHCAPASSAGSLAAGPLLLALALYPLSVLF

[3] = target: T1, Intestinal-type alkaline phosphatase; test: inhibition of human intestinal alkaline phosphatase – biochemical, luminescent, uHTS hits, set 2, dose response (AID 488793); type: functional
[4] = target: T2, Alkaline phosphatase, tissue-nonspecific isozyme; test: inhibition of tissue-nonspecific alkaline phosphatase – biochemical, dose response (AID 488882); type: functional
[5] = target: T3, Intestinal-type alkaline phosphatase (Mus musculus, UniProt P24822); test: PubChem AID 488785; type: functional
T3 sequence (P24822 whole entry): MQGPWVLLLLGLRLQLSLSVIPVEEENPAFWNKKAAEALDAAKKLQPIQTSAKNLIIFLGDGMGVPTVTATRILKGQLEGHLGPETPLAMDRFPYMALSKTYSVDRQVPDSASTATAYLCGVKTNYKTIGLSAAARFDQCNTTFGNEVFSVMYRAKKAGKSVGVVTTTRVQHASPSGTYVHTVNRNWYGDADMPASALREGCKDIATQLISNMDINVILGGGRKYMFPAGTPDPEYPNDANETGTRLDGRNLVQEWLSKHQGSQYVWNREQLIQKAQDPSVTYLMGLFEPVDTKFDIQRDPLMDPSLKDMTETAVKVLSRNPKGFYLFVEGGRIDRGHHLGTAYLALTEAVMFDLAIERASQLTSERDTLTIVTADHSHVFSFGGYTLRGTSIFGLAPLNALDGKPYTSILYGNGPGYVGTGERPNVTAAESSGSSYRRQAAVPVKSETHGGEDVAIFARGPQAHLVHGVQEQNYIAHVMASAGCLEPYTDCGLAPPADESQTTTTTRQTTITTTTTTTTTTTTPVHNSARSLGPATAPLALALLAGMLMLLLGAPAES

[6] = target: 1-phosphatidylinositol 4,5-bisphosphate phosphodiesterase gamma-1 (Homo sapiens, UniProt P19174); test: Counterscreen for inhibitors of phospholipase C isozymes (PLC-B3): Fluorescence-based biochemical high throughput dose response assay to identify inhibitors of phospholipase C isozymes (PLC-gamma1).
Chain of 1-phosphatidylinositol 4,5-bisphosphate phosphodiesterase gamma-1 (P19174 whole entry): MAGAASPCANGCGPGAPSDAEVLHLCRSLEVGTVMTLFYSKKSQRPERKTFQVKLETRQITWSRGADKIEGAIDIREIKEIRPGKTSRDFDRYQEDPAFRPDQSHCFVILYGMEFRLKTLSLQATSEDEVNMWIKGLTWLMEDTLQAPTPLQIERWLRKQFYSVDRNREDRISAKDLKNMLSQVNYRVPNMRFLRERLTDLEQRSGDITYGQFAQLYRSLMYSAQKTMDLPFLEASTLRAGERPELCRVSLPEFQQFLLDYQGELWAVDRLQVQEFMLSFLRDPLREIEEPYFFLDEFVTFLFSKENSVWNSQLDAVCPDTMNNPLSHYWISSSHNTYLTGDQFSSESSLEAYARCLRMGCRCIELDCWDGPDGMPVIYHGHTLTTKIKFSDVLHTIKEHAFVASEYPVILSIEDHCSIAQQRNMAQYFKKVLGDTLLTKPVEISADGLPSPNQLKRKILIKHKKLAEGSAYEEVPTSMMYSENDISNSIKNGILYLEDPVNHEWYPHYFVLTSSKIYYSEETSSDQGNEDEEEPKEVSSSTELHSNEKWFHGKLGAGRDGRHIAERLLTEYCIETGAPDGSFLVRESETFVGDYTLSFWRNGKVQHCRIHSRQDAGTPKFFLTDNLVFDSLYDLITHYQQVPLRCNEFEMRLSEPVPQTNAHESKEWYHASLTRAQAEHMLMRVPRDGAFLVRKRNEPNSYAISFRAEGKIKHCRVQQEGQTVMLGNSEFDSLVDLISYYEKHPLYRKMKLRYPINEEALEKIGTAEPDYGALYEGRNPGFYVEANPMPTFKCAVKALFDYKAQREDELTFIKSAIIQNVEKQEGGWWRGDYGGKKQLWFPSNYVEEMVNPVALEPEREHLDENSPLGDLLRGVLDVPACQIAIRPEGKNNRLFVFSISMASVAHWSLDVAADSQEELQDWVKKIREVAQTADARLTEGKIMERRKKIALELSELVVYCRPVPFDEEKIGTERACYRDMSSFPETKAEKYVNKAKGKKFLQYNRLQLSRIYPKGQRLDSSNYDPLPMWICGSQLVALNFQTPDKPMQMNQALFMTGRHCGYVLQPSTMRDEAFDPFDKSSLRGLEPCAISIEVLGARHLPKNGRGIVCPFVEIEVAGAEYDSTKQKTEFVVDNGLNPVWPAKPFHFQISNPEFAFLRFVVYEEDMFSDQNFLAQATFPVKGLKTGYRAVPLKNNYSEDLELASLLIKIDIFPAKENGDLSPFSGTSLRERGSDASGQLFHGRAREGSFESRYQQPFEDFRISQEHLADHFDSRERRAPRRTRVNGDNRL

[7] = target: T3, Intestinal-type alkaline phosphatase; test: PubChem AID 488874; type: functional
Cytochrome P450 3A4 = Cytochrome P450 3A4 (Homo sapiens, UniProt P08684);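 further: CYP3A4 tested as one member of a cytochrome P450 panel screen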
[8] = target: T1, Intestinal-type alkaline phosphatase; test: Dose Response confirmation of uHTS hits from a small molecule inhibitors of human intestinal alkaline phosphatase via a luminescent assay. [Related pubchem assays (depositor defined):AID2544, AID2574]; type: functional
[9] = target: 1-phosphatidylinositol 4,5-bisphosphate phosphodiesterase beta-3 (Homo sapiens, UniProt Q01970); test: Fluorescence-based biochemical high throughput dose response assay to identify inhibitors of phospholipase C isozymes (PLC-B3).
Chain of 1-phosphatidylinositol 4,5-bisphosphate phosphodiesterase beta-3 (Q01970 whole entry): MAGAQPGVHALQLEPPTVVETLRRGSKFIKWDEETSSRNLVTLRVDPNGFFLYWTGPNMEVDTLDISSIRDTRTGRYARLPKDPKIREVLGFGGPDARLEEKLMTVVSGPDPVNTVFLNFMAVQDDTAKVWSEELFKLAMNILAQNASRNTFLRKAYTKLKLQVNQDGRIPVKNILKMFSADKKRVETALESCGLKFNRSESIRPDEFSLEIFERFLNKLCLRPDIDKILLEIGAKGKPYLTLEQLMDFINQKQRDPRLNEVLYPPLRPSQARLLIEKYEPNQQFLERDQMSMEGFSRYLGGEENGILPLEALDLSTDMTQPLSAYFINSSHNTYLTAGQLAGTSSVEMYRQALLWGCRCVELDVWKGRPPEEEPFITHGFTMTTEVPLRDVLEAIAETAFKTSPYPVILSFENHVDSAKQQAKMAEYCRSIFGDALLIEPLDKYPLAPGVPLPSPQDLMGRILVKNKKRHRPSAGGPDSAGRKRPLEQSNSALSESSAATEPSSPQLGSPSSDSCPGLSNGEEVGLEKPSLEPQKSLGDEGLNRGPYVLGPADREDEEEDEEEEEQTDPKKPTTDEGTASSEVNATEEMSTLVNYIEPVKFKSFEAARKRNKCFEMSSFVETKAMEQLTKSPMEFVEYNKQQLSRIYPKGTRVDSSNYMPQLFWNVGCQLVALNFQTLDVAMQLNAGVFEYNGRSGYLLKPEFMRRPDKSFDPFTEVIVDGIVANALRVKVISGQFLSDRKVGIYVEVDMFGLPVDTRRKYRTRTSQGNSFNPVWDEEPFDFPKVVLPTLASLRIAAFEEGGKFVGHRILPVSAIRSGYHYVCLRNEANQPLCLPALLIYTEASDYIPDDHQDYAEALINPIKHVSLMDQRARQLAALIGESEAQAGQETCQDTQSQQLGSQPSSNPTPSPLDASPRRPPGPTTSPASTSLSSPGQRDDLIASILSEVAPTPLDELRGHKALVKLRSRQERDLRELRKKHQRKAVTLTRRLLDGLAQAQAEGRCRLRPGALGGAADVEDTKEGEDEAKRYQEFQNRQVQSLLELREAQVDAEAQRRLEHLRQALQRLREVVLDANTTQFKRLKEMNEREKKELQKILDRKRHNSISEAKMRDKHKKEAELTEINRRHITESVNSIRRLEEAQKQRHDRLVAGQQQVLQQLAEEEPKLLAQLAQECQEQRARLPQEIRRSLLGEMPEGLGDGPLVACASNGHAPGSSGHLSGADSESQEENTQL

[10] = target: T4, Mannose-6-phosphate isomerase (Homo sapiens, UniProt P34949); test: MPI inhibition at elevated mannose 6-phosphate – biochemical, fluorescence intensity, high mannose 6-phosphate, primary screen (AID 1220)
T4 sequence (P34949 whole entry): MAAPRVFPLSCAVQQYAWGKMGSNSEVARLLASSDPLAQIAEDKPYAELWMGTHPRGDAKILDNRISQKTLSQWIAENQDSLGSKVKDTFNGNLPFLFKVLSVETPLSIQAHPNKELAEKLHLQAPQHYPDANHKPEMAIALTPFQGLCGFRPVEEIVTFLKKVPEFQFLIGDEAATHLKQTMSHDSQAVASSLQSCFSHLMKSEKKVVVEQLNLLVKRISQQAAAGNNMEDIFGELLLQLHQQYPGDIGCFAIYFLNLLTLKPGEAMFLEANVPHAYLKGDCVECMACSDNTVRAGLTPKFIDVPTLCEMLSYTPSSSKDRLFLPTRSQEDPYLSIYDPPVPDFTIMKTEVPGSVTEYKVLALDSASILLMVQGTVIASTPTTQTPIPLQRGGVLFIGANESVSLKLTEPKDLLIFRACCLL

[11] = viability of PTEN-deleted HCT116 cells – cell-based, HCT116 PTEN knockout, dose response (AID 1047); type: functional;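 further: HCT116 colon tumor cells with PTEN knocked out; cells exposed to compound for 60 hours before readout; potency for loss of cell viability measured by luminescence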
[12] = target: T5, Heat shock factor protein 1 (Mus musculus, UniProt P38532); test: enhancement of HSF1-driven luciferase signal – cell-based, NIH3T3, luminescence, dose retest, confirmation (AID 435004); type: functional;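 further: stress induced by proteasome inhibitor MG132 added 30 min after compound; luciferase reporter driven by HSF1 response element in NIH3T3 cells; actives raise luminescence as potentiators of the MG132 stress response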
T5 sequence (P38532 whole entry): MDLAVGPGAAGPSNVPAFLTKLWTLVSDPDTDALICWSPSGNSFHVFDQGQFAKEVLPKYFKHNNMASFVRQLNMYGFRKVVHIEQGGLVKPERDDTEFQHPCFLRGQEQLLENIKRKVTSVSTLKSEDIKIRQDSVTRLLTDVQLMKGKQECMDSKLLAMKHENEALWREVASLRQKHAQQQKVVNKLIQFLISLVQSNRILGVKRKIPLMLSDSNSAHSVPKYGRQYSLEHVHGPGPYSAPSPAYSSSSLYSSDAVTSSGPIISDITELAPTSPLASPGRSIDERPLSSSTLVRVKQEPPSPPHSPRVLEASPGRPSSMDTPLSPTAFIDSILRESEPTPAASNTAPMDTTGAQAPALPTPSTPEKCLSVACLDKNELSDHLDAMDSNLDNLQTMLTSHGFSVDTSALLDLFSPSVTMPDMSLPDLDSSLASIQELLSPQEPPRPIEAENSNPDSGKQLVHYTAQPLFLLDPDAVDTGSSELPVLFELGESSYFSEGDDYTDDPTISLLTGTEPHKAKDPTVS

[13] = target: Neurotensin receptor type 1 (Homo sapiens, UniProt P30989); type: functional;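 further: Image-based confirmatory dose-response assay measuring agonist activity at NTR1; NTR1-expressing U2OS osteosarcoma cells imaged for beta-arrestin GFP spot formation; agonist potency where compounds increase beta-arrestin recruitment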
[14] = target: T6, Rac GTPase-activating protein 1 (Homo sapiens, UniProt Q9H0H5); test: blockers of MgcRacGAP-driven Rac1 GTP hydrolysis – biochemical, ADP Hunter fluorescence, primary and confirmatory, confirmation (AID 624330); type: functional
T6 sequence (Q9H0H5 whole entry): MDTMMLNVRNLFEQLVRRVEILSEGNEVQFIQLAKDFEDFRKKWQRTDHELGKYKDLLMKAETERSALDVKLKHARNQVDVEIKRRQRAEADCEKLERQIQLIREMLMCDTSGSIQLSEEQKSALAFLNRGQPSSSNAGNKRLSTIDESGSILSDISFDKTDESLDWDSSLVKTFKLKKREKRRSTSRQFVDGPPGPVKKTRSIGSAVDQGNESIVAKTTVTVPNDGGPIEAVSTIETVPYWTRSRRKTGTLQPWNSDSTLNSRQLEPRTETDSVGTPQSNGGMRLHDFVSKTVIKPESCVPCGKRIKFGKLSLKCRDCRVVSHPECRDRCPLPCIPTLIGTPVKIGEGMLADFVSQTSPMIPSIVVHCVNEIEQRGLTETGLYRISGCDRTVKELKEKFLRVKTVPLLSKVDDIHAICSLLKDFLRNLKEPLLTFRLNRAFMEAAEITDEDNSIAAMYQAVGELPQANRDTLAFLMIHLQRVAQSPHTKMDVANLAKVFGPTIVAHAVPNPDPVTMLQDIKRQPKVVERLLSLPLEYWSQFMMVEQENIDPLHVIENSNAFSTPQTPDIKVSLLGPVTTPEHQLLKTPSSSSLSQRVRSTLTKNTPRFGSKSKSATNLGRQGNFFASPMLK

[15] = viability loss in HeLa cells – cytotoxicity control for MgcRacGAP inhibitor project, dose response (AID 624300); type: functional
MDCK = test: antiviral activity against H1N1 influenza, dose response, cell-based, strain KY136 (AID 540257); type: functional; details: Canis lupus familiaris
Nonstructural protein 1 = Nonstructural protein 1 (Influenza A virus, UniProt Q194T2); type: functional, Influenza A virus (A/California/07/2009(H1N1))
Chain of Nonstructural protein 1 (Q194T2 whole entry): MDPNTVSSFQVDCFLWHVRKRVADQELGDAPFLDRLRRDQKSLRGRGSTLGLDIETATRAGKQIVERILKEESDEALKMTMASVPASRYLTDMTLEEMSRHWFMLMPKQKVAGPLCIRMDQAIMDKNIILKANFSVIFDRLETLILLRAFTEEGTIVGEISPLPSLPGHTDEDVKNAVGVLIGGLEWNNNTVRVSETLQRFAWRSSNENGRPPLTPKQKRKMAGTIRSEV

[16] = viability of HCT116 lacking mutant beta-catenin – cell-based, human colon tumor, dose response (AID 1045); type: functional;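 further: HCT116 colon tumor cells with beta catenin knocked out; cells exposed to compound for 60 hours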
[17] = target: Beta-adrenergic receptor kinase 1 (Homo sapiens, UniProt P25098); test: blockers of aptamer binding to GRK2 – biochemical, flow cytometry beads, FAM-aptamer, powder set 1, dose response (AID 588720)
[18] = Luminescence Cell-Based Dose Retest to Confirm Inhibitors of Cancer Stem Cells. [Related pubchem assays (depositor defined):AID2717, AID2721]; type: functional; details: Homo sapiens
[19] = fluconazole-exposed Candida albicans growth modulators – fluorescence, retest, confirmation (AID 2467); type: functional, cell-based
Cytochrome P450 1A2 [20] = target: T7, Cytochrome P450 1A2 (Homo sapiens, UniProt P05177);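 further: PubChem cytochrome P450 panel assay, CYP1A2 panel member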
T7 sequence (P05177 whole entry): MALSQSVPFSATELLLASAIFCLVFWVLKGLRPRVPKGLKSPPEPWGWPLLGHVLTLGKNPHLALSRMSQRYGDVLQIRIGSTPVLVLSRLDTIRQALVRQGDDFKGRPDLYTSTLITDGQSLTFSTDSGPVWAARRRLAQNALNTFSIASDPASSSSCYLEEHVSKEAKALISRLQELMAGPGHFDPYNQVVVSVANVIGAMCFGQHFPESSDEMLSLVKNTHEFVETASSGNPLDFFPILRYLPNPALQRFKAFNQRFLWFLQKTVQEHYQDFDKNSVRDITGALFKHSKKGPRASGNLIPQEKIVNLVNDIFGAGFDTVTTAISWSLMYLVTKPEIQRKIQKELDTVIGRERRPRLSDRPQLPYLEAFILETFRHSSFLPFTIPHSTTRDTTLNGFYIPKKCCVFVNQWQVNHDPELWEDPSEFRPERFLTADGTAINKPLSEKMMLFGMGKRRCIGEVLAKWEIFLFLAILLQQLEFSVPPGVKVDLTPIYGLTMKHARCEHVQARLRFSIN

[21] = NIH-3T3 fibroblast cytotoxicity, dose response, cytotoxicity control, cell-based, fluorescence, Alamar Blue, secondary assay (AID 2327); type: functional;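 further: NIH-3T3 mouse fibroblasts cultured with fluconazole at 8 µg/mL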
[22] = viability loss of HMLE_sh_eGFP cells – cell-based, luminescence, counter-screen for HMLE_sh_ECad selective toxicity project, dose response (AID 463074); type: functional, Homo sapiens;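 further: HMLE human mammary epithelial cells expressing control shRNA against eGFP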
Cytochrome P450 2C9 = Cytochrome P450 2C9 (Homo sapiens, UniProt P11712)
Chain of Cytochrome P450 2C9 (P11712 whole entry): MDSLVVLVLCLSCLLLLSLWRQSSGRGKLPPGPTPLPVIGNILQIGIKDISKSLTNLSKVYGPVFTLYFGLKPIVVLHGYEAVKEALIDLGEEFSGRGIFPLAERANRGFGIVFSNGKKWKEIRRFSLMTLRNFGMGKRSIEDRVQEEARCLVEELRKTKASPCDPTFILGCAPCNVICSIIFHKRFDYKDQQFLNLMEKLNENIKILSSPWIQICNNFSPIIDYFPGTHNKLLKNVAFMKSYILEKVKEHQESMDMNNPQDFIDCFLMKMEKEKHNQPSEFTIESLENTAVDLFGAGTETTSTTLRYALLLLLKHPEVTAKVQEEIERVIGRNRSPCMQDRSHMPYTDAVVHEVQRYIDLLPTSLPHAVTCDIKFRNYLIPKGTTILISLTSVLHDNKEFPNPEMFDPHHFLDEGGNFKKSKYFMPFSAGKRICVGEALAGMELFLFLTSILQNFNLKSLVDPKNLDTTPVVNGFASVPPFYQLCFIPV

Cytochrome P450 1A2 [23] = target: T7, Cytochrome P450 1A2; remark: listed apart in the source
Cytochrome P450 2D6 = Cytochrome P450 2D6 (Homo sapiens, UniProt P10635);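 further: CYP2D6 member of a cytochrome P450 panel assay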
Cytochrome P450 2C19 = Cytochrome P450 2C19 (Homo sapiens, UniProt P33261); test: Cytochrome panel assay with activity outcomes. Panel member name: p450-cyp2c19 Compounds with AC50 equal or less than 10 uM are considered active; type: functional
Chain of Cytochrome P450 2C19 (P33261 whole entry): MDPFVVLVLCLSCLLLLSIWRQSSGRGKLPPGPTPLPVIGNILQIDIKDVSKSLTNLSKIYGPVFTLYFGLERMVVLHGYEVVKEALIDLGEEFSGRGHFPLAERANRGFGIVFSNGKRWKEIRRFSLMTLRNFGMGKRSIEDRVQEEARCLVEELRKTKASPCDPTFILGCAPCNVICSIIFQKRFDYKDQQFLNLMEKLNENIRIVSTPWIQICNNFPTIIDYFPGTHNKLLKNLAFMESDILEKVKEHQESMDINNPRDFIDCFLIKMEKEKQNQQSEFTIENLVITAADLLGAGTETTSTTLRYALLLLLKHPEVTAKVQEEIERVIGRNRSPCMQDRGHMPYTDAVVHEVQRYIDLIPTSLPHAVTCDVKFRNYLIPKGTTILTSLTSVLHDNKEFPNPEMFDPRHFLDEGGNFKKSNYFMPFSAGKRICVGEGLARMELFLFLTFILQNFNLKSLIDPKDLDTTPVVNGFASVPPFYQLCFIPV

[24] = target: Dual specificity protein phosphatase 3 (Homo sapiens, UniProt P51452); test: SAR VHR1 Fluorescent Assay for In Vitro dose response studies Set 3. [Related pubchem assays (depositor defined):AID1654, AID1661, AID1878]; type: functional
Cysteine protease ATG4B = target: T8, Cysteine protease ATG4B (Homo sapiens, UniProt Q9Y4P1); test: autophagin-1 cysteine protease inhibition – biochemical, fluorescence, set 2, dose response (AID 588584); type: functional
T8 sequence (Q9Y4P1 whole entry): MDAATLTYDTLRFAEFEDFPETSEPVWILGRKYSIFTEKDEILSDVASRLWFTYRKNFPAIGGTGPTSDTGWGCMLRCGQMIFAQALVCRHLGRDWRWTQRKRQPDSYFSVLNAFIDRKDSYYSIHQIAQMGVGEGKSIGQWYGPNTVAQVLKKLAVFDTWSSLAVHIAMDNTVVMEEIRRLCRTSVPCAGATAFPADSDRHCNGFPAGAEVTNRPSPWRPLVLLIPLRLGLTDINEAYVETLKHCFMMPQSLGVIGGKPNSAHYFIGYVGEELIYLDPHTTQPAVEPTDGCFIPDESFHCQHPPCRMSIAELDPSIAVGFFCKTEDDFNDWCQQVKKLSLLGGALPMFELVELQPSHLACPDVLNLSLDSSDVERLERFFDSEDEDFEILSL

Phospholipase A2 = Phospholipase A2 (Homo sapiens, UniProt P04054); test: phospholipase A2 activity inhibition – biochemical, set 2, counter-screen for ATG4B inhibitor project, dose response (AID 588586); type: functional
Chain of Phospholipase A2 (P04054 whole entry): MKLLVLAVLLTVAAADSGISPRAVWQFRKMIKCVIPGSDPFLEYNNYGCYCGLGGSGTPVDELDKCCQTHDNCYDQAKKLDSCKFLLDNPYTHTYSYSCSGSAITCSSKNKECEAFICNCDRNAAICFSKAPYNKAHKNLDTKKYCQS

BJ [25] = test: cells; type: functional, cell-based; details: Homo sapiens
[26] = DRD fibroblast viability loss – cell-based, non-viral oncogenic, luminescence, dose response (AID 1934); type: functional; details: Homo sapiens
BJ [27] = test: BJ-TERT fibroblast viability loss – cell-based, RAS-independent, luminescence, dose response (AID 1933); type: functional; details: Homo sapiens

SMILES: COc1cc(/C=C(\C#N)C(=O)c2ccc(O)c(O)c2)cc(I)c1O
- IC50 (Large T antigen): 7.17 µM (active)
- EC50 [1]: > 100 µM (inactive)
- IC50 [2]: > 100 µM (inactive)
- IC50 [3]: 4.56 µM (active)
- IC50 [4]: 5.88 µM (active)
- IC50 [5]: 5.7 µM (active)
- IC50 [6]: > 122 µM (inactive)
- IC50 [7]: < 0.195 µM (active)
- AC50 (Cytochrome P450 3A4): 12.6 µM (inconclusive)
- IC50 [8]: 7.31 µM (active)
- IC50 [9]: > 122 µM (inactive)

SMILES: COC(=O)c1ccc2c(c1)C(C)(C)C(/C=C/c1ccc(O)cc1)=[N+]2C
- IC50 [10]: > 50 µM (not active)
- EC50 [11]: 2.06 µM (active)
- EC50 [12]: > 260 µM (inconclusive)
- EC50 [13]: 7.59 µM (active)
- IC50 [14]: 29.5 µM (active)
- CC50 [15]: 35.1 µM (active)
- IC50 (MDCK): 5.29 µM (active)
- IC50 (Nonstructural protein 1): 20.2 µM (active)
- EC50 [16]: 2.15 µM (active)

SMILES: COc1ccc(NC(=O)CCS(=O)(=O)c2ccc(Br)s2)cc1
- EC50 [17]: 9.14 µM (active)

SMILES: CCCc1ccc(C2C3=C(CC(C)(C)CC3=O)N=C3C2=C(O)c2ccccc23)cc1 (stereo unspecified)
- AC50 [18]: 24.9 µM (active)
- EC50 [19]: 2.66 µM (active)
- AC50 (Cytochrome P450 1A2 [20]): 6.31 µM (inconclusive)
- EC50 [21]: > 150 µM (inactive)
- AC50 [22]: 187 µM (active)

SMILES: Cn1cccc1C(=O)N1CCC2(CCCN(c3ncccn3)C2)CC1
- AC50 (Cytochrome P450 2C9): inconclusive
- AC50 (Cytochrome P450 1A2 [23]): inconclusive
- AC50 (Cytochrome P450 2D6): inconclusive
- AC50 (Cytochrome P450 2C19): inconclusive

SMILES: Cn1cnnc1SCC(=O)Nc1ccc2nc(SCC(=O)c3ccccc3)sc2c1
- IC50 [24]: > 66 µM (inactive)

SMILES: CCC1=Nc2cc(C(=O)NCc3ccco3)ccc2Sc2ccc(Cl)cc21
- IC50 (Cysteine protease ATG4B): > 80 µM (inactive)
- IC50 (Phospholipase A2): 40.1 µM (inactive)
- EC50 (BJ [25]): 20.4 µM (active)
- EC50 [26]: 1.97 µM (active)
- EC50 (BJ [27]): 1.55 µM (active)
